# Experimental data taken from US5191079A, “Quinolinecarboxylic acid derivatives” (priority 1990, dated 1993).
# How the values were obtained:
# [1] = system: clinically isolated Enterococcus faecium; assay: In vitro antibacterial activity against clinical isolates, Experiment 2; type: cell-based
# Procedure: (§1) The above solutions were then diluted with sterilized distilled water to prepare a standard solution with a concentration of the test compound: 1000 μg/ml each.
# (§2) For the preculture of each microorganism, there was used as the medium a sensitivity test broth (manufactured by Nissui Seiyaku K. K., Japan), and for the measurement of MIC, there was used a sensitivity test agar medium (manufactured by Nissui Seiyaku K. K.).
# (§3) The clinically isolates used above were isolated from Nov. 1988 to Jun. 1989 and were obtained from Research Section, Tokyo Clinical Research Center.
# [2] = system: clinically isolated Staphylococcus aureus; assay: as above; type: cell-based
# Procedure: as §1, §2, §3
# [3] = system: clinically isolated Enterococcus faecalis; assay: as above; type: cell-based
# Procedure: as §1, §2, §3
# [4] = system: clinically isolated Staphylococcus epidermidis; assay: as above; type: cell-based; conditions: Staphylococcus epidermidis
# Procedure: as §1, §2, §3
# Bacillus cereus IAM 1029 = assay: MIC, Experiment 1; type: cell-based; conditions: IAM1029, B. cereus IAM 1029, Gram +, read-out: Min. inhib. concentr. (MIC)
# Procedure: (§4) The compounds of the present invention (B, E, G, H, M, N, O, P and Q) were each dissolved in dimethylsulfoxide to prepare a solution of 5000 μg/ml in concentration. The compounds of the present invention (I, J and K) and the known compound (Y) were each dissolved in sterilized distilled water to prepare a solution of 5000 μg/ml in concentration. Each solution was diluted with sterilized distilled water to prepare a standard solution with a concentration of each test compound: 1000 μg/ml. The test was carried out by a method as appointed by Japan Society of Chemotherapy [cf. Chemotherapy, 29, 76-79 (1981), TOKYO].
# (§5) As to Streptococcus pneumoniae and Streptococcus pyogenes, Brain heart infusion broth (manufactured by DIFCO) was used as the medium for the preculture thereof, and a heart infusion agar medium containing 5% defibrinated horse blood (manufactured by Nissui Seiyaku K. K., Japan) was used as the medium for the measurement of minimum inhibitory concentration (MIC). As to other microorganisms, a sensitivity test broth (manufactured by Nissui Seiyaku K. K.) was used as the medium for the preculture thereof, and a sensitivity test agar medium (manufactured by Nissui Seiyaku K. K.) was used as the medium for the measurement of MIC.
# [5] = system: Acinetobacter calcoaceticus Ac 54; assay: MIC, Experiment 1; type: cell-based; conditions: AC54, A. calcoaceticus Ac 54, Gram -, read-out: Min. inhib. concentr. (MIC)
# Procedure: as §4, §5
# [6] = system: Escherichia coli NIHJ JC-2; assay: MIC, Experiment 1; type: cell-based; conditions: NIHJJC2, E. coli NIHJ JC-2, Gram -, read-out: Min. inhib. concentr. (MIC)
# Procedure: as §4, §5
# [7] = system: Staphylococcus aureus IID 803; assay: MIC, Experiment 1; type: cell-based; conditions: IID803, S. aureus IID 803, Gram +, read-out: Min. inhib. concentr. (MIC)
# Procedure: as §4, §5
# Enterobacter cloacae 963 = assay: MIC, Experiment 1; type: cell-based; conditions: E. cloacae 963, Gram -, read-out: Min. inhib. concentr. (MIC)
# Procedure: as §4, §5
# [8] = system: Staphylococcus aureus Terajima (IID 670); assay: MIC, Experiment 1; type: cell-based; conditions: IID670, S. aureus Terajima (IID 670), Gram +, read-out: Min. inhib. concentr. (MIC)
# Procedure: as §4, §5
# [9] = system: Klebsiella pneumoniae PCI-602; assay: MIC, Experiment 1; type: cell-based; conditions: PCI602, K. pneumoniae PCI-602, Gram -, read-out: Min. inhib. concentr. (MIC)
# Procedure: as §4, §5
# [10] = system: Staphylococcus aureus ATCC 9144; assay: MIC, Experiment 1; type: cell-based; conditions: ATCC9144, S. aureus ATCC 9144, Gram +, read-out: Min. inhib. concentr. (MIC)
# Procedure: as §4, §5
# [11] = system: Staphylococcus aureus FDA 209P JC-1; assay: MIC, Experiment 1; type: cell-based; conditions: FDA209P, S. aureus FDA 209P JC-1, Gram +, read-out: Min. inhib. concentr. (MIC)
# Procedure: as §4, §5
# [12] = system: Bacillus subtilis ATCC 6633; assay: MIC, Experiment 1; type: cell-based; conditions: ATCC6633, B. subtilis ATCC 6633, Gram +, read-out: Min. inhib. concentr. (MIC)
# Procedure: as §4, §5
# [13] = system: Micrococcus luteus ATCC 9341; assay: MIC, Experiment 1; type: cell-based; conditions: ATCC9341, M. luteus ATCC 9341, Gram +, read-out: Min. inhib. concentr. (MIC)
# Procedure: as §4, §5
# [14] = system: Staphylococcus aureus Cowan I (IID 975); assay: MIC, Experiment 1; type: cell-based; conditions: IID975, S. aureus Cowan I (IID 975), Gram +, read-out: Min. inhib. concentr. (MIC)
# Procedure: as §4, §5
# [15] = system: Pseudomonas aeruginosa NCTC 10490; assay: MIC, Experiment 1; type: cell-based; conditions: NCTC10490, P. aeruginosa NCTC 10490, Gram -, read-out: Min. inhib. concentr. (MIC)
# Procedure: as §4, §5
# [16] = system: Proteus mirabilis IFO 3849; assay: MIC, Experiment 1; type: cell-based; conditions: IFO3849, P. mirabilis IFO 3849, Gram -, read-out: Min. inhib. concentr. (MIC)
# Procedure: as §4, §5
# [17] = system: Staphylococcus aureus FDA 243; assay: MIC, Experiment 1; type: cell-based; conditions: FDA243, S. aureus FDA 243, Gram +, read-out: Min. inhib. concentr. (MIC)
# Procedure: as §4, §5
# [18] = system: Staphylococcus aureus IID 803; assay: Effect on treatment of general infectious disease (systemic infection in mice), Experiment 3; type: in vivo, Staphylococcus aureus; ddY male mice; conditions: Staphylococcus aureus, IID803, 168 h; oral, 1 h after i.p. infection, mice, survival after one week, average of several tests; read-out: 50% effective dose (ED50)
# Procedure: Staphylococcus aureus IID 803
# The test microorganism was subjected to standing culture in Brain heart infusion broth (manufactured by DIFCO) at 37° C. for 16 to 18 hours. The culture was then diluted with PBS (Dulbecco's phosphate buffered saline) to adjust the concentration of bacteria to 4×10^7 -8×10^7 CFU/ml. The mixture was mixed with an equivalent amount of 10% (w/v) Mucin (BACTO MUCIN BACTERIOLOGICAL, manufactured by Difco Co.) to prepare a bacterial suspension. The thus prepared bacterial suspension (0.5 ml each) was intraperitoneally inoculated to ddY male mice (5 weeks age, weighing 24-27 g, 5 mice in each group), to infect the animals, by which systemic infectious model was prepared.
# The mice were daily observed for one week, and from the survival number of mice after one week, the 50% effective dose (ED50) was calculated by Weil method. This test was repeated several times and the average of ED50 was calculated.
smiles,measurement,setting,value
"CC1COc2c(N3CCN(C)CC3)c(F)cc3c(=O)c(C(=O)O)cn1c23 (stereo not drawn) [Compound (X), 9-Fluoro-3-methyl-10-(4-methyl-1-piperazinyl)-7-oxo-2,3-dihydro-7H-pyrido[1,2,3-de][1,4]benzoxazine-6-carboxylic acid, reference compound]",MIC90,[1],100 µg/mL
same,MIC50,"[1]; 25 clinical strains E. faecium, 50% of strains, read-out: MIC50",25 µg/mL
same,MIC50,[2],1.56 µg/mL
same,MIC90,[2],25 µg/mL
same,MIC,[2]; 25 clinical strains S. aureus incl. 16 methicillin resistant,0.39 to 50 µg/mL
same,MIC50,[3],3.13 µg/mL
same,MIC,[3]; 25 clinical strains E. faecalis,1.56 to 100 µg/mL
same,MIC90,"[3]; 25 clinical strains E. faecalis, 90% of strains, read-out: MIC90",50 µg/mL
same,MIC90,[4],25 µg/mL
same,MIC,[4]; 25 clinical strains S. epidermidis,0.2 to 50 µg/mL
same,MIC50,"[4]; 25 clinical strains S. epidermidis, 50% of strains, read-out: MIC50",0.78 µg/mL
same,MIC,Bacillus cereus IAM 1029,0.39 µg/mL
same,MIC,[5],0.39 µg/mL
same,MIC,[6],0.1 µg/mL
same,MIC,[7],0.39 µg/mL
same,MIC,Enterobacter cloacae 963,0.2 µg/mL
same,MIC,[8],0.39 µg/mL
same,MIC,[9],0.05 µg/mL
same,MIC,[10],0.39 µg/mL
same,MIC,[11],0.39 µg/mL
same,MIC,[12],0.1 µg/mL
same,MIC,[13],3.13 µg/mL
same,MIC,[14],0.39 µg/mL
same,MIC,[15],1.56 µg/mL
same,MIC,[16],0.39 µg/mL
same,MIC,[17],0.39 µg/mL
same,ED50,[18],11.4 mg/kg
